Laboratory results as given in publication PMC11292009, “Mapping protein binding sites by photoreactive fragment pharmacophores” (Communications Chemistry, 2024).
Where “and” joins values, the source holds several entries; their conditions need not be identical. Identical values can stand only once.

How the values were obtained:
myoglobin (Myo) = assay: Intact protein MS photoaffinity labeling screen, myoglobin; type: binding; details: intact protein MS after 10 min irradiation
Method in brief: (§1)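 Labeling % derives from mass additions observed by intact protein MS on each well, measured without transfer from the plate; fragments, one per well, had been pre-incubated 15 min with protein.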

[1] = test system: carbonic anhydrase II (CA); assay: Intact protein MS photoaffinity labeling screen, carbonic anhydrase; type: binding; details: intact protein MS after 10 min irradiation
Method in brief: as §1

STAT5B-NTD [2] = test system: T1, STAT5B-NTD; assay: Intact MS labeling screen, STAT5B-NTD conjugated with photocatalyst Ir-G2-PEG3-COOH (450 nm); type: binding; details: 450 nm 10 min;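 note: 0.14 µL of 100 mM DMSO fragment stock added to the conjugate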
T1 construct: His-SUMO (N, cleaved yes); made in house; host or cells: E. coli BL21 RILP
Method in brief: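 Ir-G2-PEG3-COOH photocatalyst (10 eq) activated 30 min with EDC/NHS/BOP, then conjugated to STAT5B-NTD (7 µM) overnight at RT or 1 h at 37 °C in dark. PhP added, 1 h dark, then 450 nm irradiation 10 min at 4 °C; labeling read by intact LC-MS, positive ion mode, m/z 100–2000.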

BRD4-BD1 = test system: T2, BRD4-BD1; assay: Intact MS photoaffinity labeling screen, BRD4-BD1 (302 nm, LCMS-TOF); type: binding; details: for MS labeling percentage, BRD4: BRD4-BD1, 302 nm 10 min
T2 construct: screened the PhP library against the first bromodomain of BRD4 (BRD4-BD1); purchased GSK/GenScript
Method in brief: (§2)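 Labeling detected as mass additions in deconvoluted intact-protein LCMS-TOF spectra. Protein at 1 μM in PBS was first mixed with one fragment per well on ice for 15 min, followed by 10 min UV exposure at 302 nm.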

lysozyme (Lyo) = assay: Intact protein MS photoaffinity labeling screen, lysozyme; type: binding; details: intact protein MS after 10 min irradiation
Method in brief: as §1

STAT5B-NTD [3] = test system: T1, STAT5B-NTD; assay: Intact MS photoaffinity labeling screen, STAT5B-NTD (365 nm, UHPLC-MS); type: binding;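 for MS labeling percentage, STAT5B: 0.17 µL of 100 mM DMSO fragment stock added to the protein sample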
Method in brief: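 UV irradiation at 365 nm for 10 min at 4 °C. Labeling read by intact-protein UHPLC-MS, positive ion mode, m/z 100–2000.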

MV4-11 cells = assay: CellTiter-Blue cell viability assay, MV4-11; type: cell-based; details: Homo sapiens, MV4-11, 72 h
Description: MV4-11 and MOLM-13 cell lines were purchased from DSMZ (Braunschweig, Germany), and grown at 37 °C and 5% CO2 in RPMI 1640 medium (Gibco^TM, Thermo Fisher Scientific). Media were supplemented with 10% fetal calf serum (FCS), 10 U/mL penicillin, 10 µg/mL streptomycin and 2 mM L-glutamine (all Gibco^TM, Thermo Fisher Scientific).
To determine the IC50 of the selected compounds on the cell lines, CellTiter-Blue® cell viability assay (Promega) was performed. For this, cells were seeded in 96-well flat bottom plates at a cell density of 10,000 cells/well. Cells were treated in triplicates with the compound of interest at various concentrations or with 10 μM Bortezomib (S1013; Selleck Chemicals, Houston, TX, USA) as a positive control. Cell viability of treated cell lines was measured using CellTiter-Blue® after 72 h incubation. Plates were measured using a GloMax® plate reader (Promega) and IC50 values were determined by non-linear regression using the GraphPad Prism 9.1.1 (GraphPad Software, Inc.) and the data are reported as mean values ± SEM.

[4] = test system: CA, Lyo, Myo, BRD4-BD1, KRas G12D, STAT5B-NTD; assay: Intact MS labeling compared over all protein targets; type: binding; details: for Labeling of the other protein targets (vs. preferred target): each of the other targets
Method in brief: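 Each fragment incubated 15 min with protein, then UV-irradiated 10 min at 302 or 365 nm to crosslink. Labeling % read by intact-protein LC-TOF MS from mass additions. For BRD4-BD1 and KRas G12D, protein stock was 1 µM in PBS, fragment stock 20 mM, incubation was on ice and irradiation at 302 nm.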

KRas^G12D = test system: T3, KRas^G12D; assay: Intact MS photoaffinity labeling screen, KRas G12D (302 nm, LCMS-TOF); type: binding; details: for MS labeling percentage, KRas: KRas G12D, 302 nm 10 min
T3 construct: purchased GSK/GenScript
Method in brief: as §2

[5] = sheet PhP, experimental hit status flag given as 0 or 1
[6] = PhP library sheet "PhP", binary flag printed as 0 or 1, key not given

SMILES | MS labeling percentage, Myo (myoglobin (Myo)) [%] | MS labeling percentage, CA [1] [%] | MS labeling percentage, STAT5B+photocat (STAT5B-NTD [2]) [%] | BRD4-BD1 (experimental hit status) (BRD4-BD1; [5]) | MS labeling percentage, Lyo (lysozyme (Lyo)) [%] | STAT5B-NTD (experimental hit status) (STAT5B-NTD [3]; [5]) | IC50 (MV4-11 cells) [µM] | Labeling of the other protein targets (vs. preferred target) [4] | MS labeling percentage, KRas (KRas^G12D) [%] | KRAS-G12D (experimental hit status) (KRas^G12D; [5]) | MS labeling percentage, BRD4 (BRD4-BD1) [%] | MS labeling percentage, STAT5B (STAT5B-NTD [3]; STAT5B-NTD, 365 nm 10 min, no photocatalyst) [%] | Labeling efficiency over all protein targets (mean ± spread) ([4]; over all protein targets) [%] | BRD4-BD1 (experimental hit status) (BRD4-BD1; [6]) | STAT5B-NTD (experimental hit status) (STAT5B-NTD [3]; [6]) | KRAS-G12D (experimental hit status) (KRas^G12D; [6])
Cc1[nH]c2ccccc2c1SCCNC(=O)CCC1(C)N=N1 [PhP065, c1cccc(c12)c(c(C)[nH]2)SCCNC(=O)CCC3(C)N=N3] | 0.1 | 0.3 | 11.2 | 0 | 2.6 | 1 | 76.2 | > 3% and < 3% | 0.2 | 0 | – | – | – | – | – | –
Cc1ncc(CO)c(CNC(=O)CCC2(C)N=N2)c1O [PhP072, Cc1ncc(CO)c(c1O)CNC(=O)CCC2(C)N=N2] | 3.3 | 7.7 | 3.3 | 1 | 1 | 0 | – | – | 12.2 | 1 | 2.2 | 0 | 4.4 ± 4.3 | – | – | –
CC1(CCC(=O)NCCc2csc(-c3ccccc3)n2)N=N1 [PhP097, N1=NC1(C)CCC(=O)NCCc2csc(n2)-c3ccccc3] | 0.1 | 0 | 4.2 | – | 1.8 | – | 56.6 | > 3% and < 3% | 0.2 | – | 0.5 | – | – | 0 | 1 | 0
